Type in all cases: cell-based
One assay deals with Staphylococcus aureus. The experiment in a line: MIC, test tube serial dilution, Staphylococcus aureus.
A further assay concerns Pseudomonas aeruginosa. Briefly: MIC, test tube serial dilution, Pseudomonas aeruginosa.
Another assay concerns Escherichia coli. The experiment in a line: MIC, test tube serial dilution, Escherichia coli.
The next assay deals with Klebsiella-Aerobacter. The experiment in a line: MIC, test tube serial dilution, Klebsiella-Aerobacter.
A further assay deals with Streptococcus faecalis. The experiment in a line: MIC, test tube serial dilution, Streptococcus faecalis.
The test system of the next assay is Proteus vulgaris. The experiment in a line: MIC, test tube serial dilution, Proteus vulgaris.
The test system of another assay is Proteus morganii. Briefly: MIC, test tube serial dilution, Proteus morganii.
Where [1] appears, read: strain 1756 (BRL 1 756), 24 hours, 37°C.

14 molecules from US3983105A, “Penicillins” (Bayer Aktiengesellschaft, priority 1971, dated 1976) can be followed below.

Where “and” joins values, the source holds several entries; their conditions need not be identical. Identical values can stand only once.

In the case of `CC(=O)N1CCN(C(=O)NC(C(=O)N[C@@H]2C(=O)N3[C@@H]2SC(C)(C)[C@@H]3C(=O)O)c2ccc(C)cc2)C1=O` (stereo partly drawn) [Penicillin No. 8 (Table 3), Sodium D,L-α-[(3-acetyl-imidazolidin-2-on1-yl)-carbonylamino]-4-methyl-benzylpenicillin], the MIC is ~ 64 U/ml against Staphylococcus aureus (Table 3, strain 1756E); 128 U/ml in the assay with Pseudomonas aeruginosa (Table 3, strain F 41); 64 U/ml in the assay with Pseudomonas aeruginosa (Table 3, strain Walter); 2 U/ml with Escherichia coli (Table 3, strain 14); 8 U/ml in the assay with Escherichia coli (Table 3, strain 183/58); 512 U/ml in the assay with Escherichia coli (Table 3, strain A 261). Besides, the MIC in the assay on Escherichia coli (Table 3, strain C 165) worked out at 8 U/ml; against Klebsiella-Aerobacter (Table 3, strain 63), 128 U/ml; in the assay with Klebsiella-Aerobacter (Table 3, strain K 10), 32 U/ml; in the assay with Streptococcus faecalis (Table 3, ATCC 9790) it was 64 U/ml; in the assay with Proteus vulgaris (unit assumed) it was 16 µg/mL; against Proteus morganii (Table 3, strain 932), 32 U/ml.
On to `COC(=O)N1CCN(C(=O)N[C@@H](C(=O)N[C@@H]2C(=O)N3[C@@H]2SC(C)(C)[C@@H]3C(=O)O)c2ccccc2)C1=O` [Example 3, Sodium D(-)-α-[(3-methoxycarbonyl-imidazolidin-2-on-1-yl)-carbonylamino]-benzylpenicillin], for which the MIC is > 256 U/ml in the assay on Staphylococcus aureus (setting [1]); 16 U/ml with Pseudomonas aeruginosa (strain Bonn, 24 hours, 37°C); 16 U/ml against Pseudomonas aeruginosa (strain Walter, 24 hours, 37°C); 4 U/ml in the assay with Escherichia coli (strain 183/58, 24 hours, 37°C); 16 U/ml in the assay with Klebsiella-Aerobacter (strain 63, 24 hours, 37°C); 16 U/ml with Klebsiella-Aerobacter (strain K 10, 24 hours, 37°C). Besides, the MIC is 64 U/ml with Streptococcus faecalis (ATCC 9790, 24 hours, 37°C); 8 µg/mL in the assay with Proteus vulgaris (unit assumed); 8 µg/mL against Proteus morganii (unit assumed).
Regarding `CC1(C)S[C@@H]2[C@H](NC(=O)[C@H](NC(=O)N3CCN(C=O)C3=O)c3ccccc3)C(=O)N2[C@H]1C(=O)O` [Example 20, Sodium D(-)-α-[(3-formyl-imidazolidin-2-on-1-yl)-carbonylamino]-benzylpenicillin], the MIC is on record as 128 U/ml with Staphylococcus aureus (setting [1]); 8 against Pseudomonas aeruginosa (in µg/mL (unit assumed)); 16 U/ml with Pseudomonas aeruginosa (strain Walter, 24 hours, 37°C); 64 U/ml against Escherichia coli (strain 183/58, 24 hours, 37°C); > 256 U/ml with Escherichia coli (strain A 261, 24 hours, 37°C); 32 in the assay with Klebsiella-Aerobacter (in µg/mL (unit assumed)). For the same molecule, the MIC came to 64 U/ml with Klebsiella-Aerobacter (strain 63, 24 hours, 37°C); 32 µg/mL with Streptococcus faecalis (unit assumed); 16 U/ml with Proteus vulgaris (strain 1017, 24 hours, 37°C); 8 µg/mL in the assay on Proteus morganii (unit assumed).
As to `CC1(C)S[C@@H]2[C@H](NC(=O)[C@H](NC(=O)N3CCN(C(=O)N4CCCC4)C3=O)c3ccccc3)C(=O)N2[C@H]1C(=O)O` [Example 8, Sodium D(-)-α-[(3-pyrrolidyl-N-carbonyl-imidazolidin-2-on-1-yl)-carbonylamino]-benzylpenicillin], the MIC against Staphylococcus aureus (setting [1]) turned out to be 128 U/ml; in the assay on Pseudomonas aeruginosa (in µg/mL (unit assumed)), 32; in the assay with Escherichia coli (strain 183/58, 24 hours, 37°C), 4 U/ml; in the assay with Streptococcus faecalis (unit assumed) it was 128 µg/mL; against Proteus vulgaris (unit assumed), 32 µg/mL; against Proteus morganii (unit assumed) it was 64 µg/mL.
As for `CC1(C)S[C@@H]2[C@H](NC(=O)[C@H](NC(=O)NC(=O)NS(C)(=O)=O)c3ccccc3)C(=O)N2[C@H]1C(=O)O` [Example 31, Sodium D(-)-α-(5 -mesyl-biureido)-benzylpenicillin], the MIC was 64 U/ml against Staphylococcus aureus (setting [1]); 256 U/ml in the assay with Pseudomonas aeruginosa (strain Bonn, 24 hours, 37°C); 256 U/ml against Pseudomonas aeruginosa (strain Walter, 24 hours, 37°C); 128 U/ml in the assay with Escherichia coli (strain 183/58, 24 hours, 37°C); > 256 U/ml against Escherichia coli (strain A 261, 24 hours, 37°C); > 256 U/ml against Klebsiella-Aerobacter (strain 63, 24 hours, 37°C). Also, the MIC against Klebsiella-Aerobacter (strain K 10, 24 hours, 37°C) is > 256 U/ml; against Streptococcus faecalis (unit assumed) it was 32 µg/mL; in the assay on Proteus vulgaris (strain 1017, 24 hours, 37°C) it was > 256 U/ml; in the assay on Proteus morganii (strain 932, 24 hours, 37°C), 64 U/ml.
For the molecule `CCS(=O)(=O)N1CCN(C(=O)NC(C(=O)N[C@@H]2C(=O)N3[C@@H]2SC(C)(C)[C@@H]3C(=O)O)c2ccc(Cl)cc2)C1=O` (stereo partly drawn) [Penicillin No. 13 (Table 3), Sodium α-[(3-ethylsulphonyl-imidazolidin-2-on-1-yl)-carbonylamino]-p-chlorobenzylpenicillin], the MIC in the assay on Staphylococcus aureus (Table 3, strain 133) was found to be 4 U/ml; in the assay on Staphylococcus aureus (Table 3, strain 1756E) it was 256 U/ml; against Pseudomonas aeruginosa (Table 3, strain F 41), 128 U/ml; in the assay with Pseudomonas aeruginosa (Table 3, strain Walter), 128 U/ml; in the assay on Escherichia coli (Table 3, strain 14), 4 U/ml; against Escherichia coli (Table 3, strain 183/58), 4 U/ml. In addition, the MIC with Escherichia coli (Table 3, strain A 261) is > 256 U/ml; against Escherichia coli (Table 3, strain C 165), 8 U/ml; with Klebsiella-Aerobacter (Table 3, strain 63), 64 U/ml; against Klebsiella-Aerobacter (Table 3, strain K 10) it was 32 U/ml; against Streptococcus faecalis (Table 3, ATCC 9790), 128 U/ml; against Proteus vulgaris (Table 3, strain 1017) it was 16 U/ml. The MIC against Proteus morganii (Table 3, strain 932) worked out at 128 U/ml.
`CC(=O)N1CCN(C(=O)NC(C(=O)N[C@@H]2C(=O)N3[C@@H]2SC(C)(C)[C@@H]3C(=O)O)c2ccc(Cl)cc2)C1=O` (stereo partly drawn) [Penicillin No. 7 (Table 3), Sodium D,L-α-[(3-acetylimidazolidin-2-on-1-yl)-carbonyl-amino]-4-chlorobenzylpenicillin]: the MIC in the assay with Staphylococcus aureus (Table 3, strain 133) was < 1 U/ml; in the assay with Staphylococcus aureus (Table 3, strain 1756E) it was 64 U/ml; against Pseudomonas aeruginosa (Table 3, strain F 41) it was 128 U/ml; in the assay on Pseudomonas aeruginosa (Table 3, strain Walter), 64 U/ml; with Escherichia coli (Table 3, strain 14) it was 4 U/ml; in the assay with Escherichia coli (Table 3, strain 183/58), 8 U/ml. For the same molecule, the MIC in the assay on Escherichia coli (Table 3, strain A 261) turned out to be 512 U/ml; against Escherichia coli (Table 3, strain C 165) it was 16 U/ml; against Klebsiella-Aerobacter (Table 3, strain 63), 128 U/ml; in the assay with Klebsiella-Aerobacter (Table 3, strain K 10), 32 U/ml; against Streptococcus faecalis (Table 3, ATCC 9790), 64 U/ml; in the assay on Proteus vulgaris (Table 3, strain 1017), 32 U/ml. This molecule also returned an MIC against Proteus morganii (Table 3, strain 932) of 16 U/ml.
Take `CCS(=O)(=O)N1CCN(C(=O)N[C@@H](C(=O)N[C@@H]2C(=O)N3[C@@H]2SC(C)(C)[C@@H]3C(=O)O)c2ccccc2)C1=O` [Example 24, Sodium D(-)-α-[(3-ethanesulphonyl-imidazolidin-2-on-1-yl)-carbonylamino]-benzylpenicillin]: the MIC in the assay with Staphylococcus aureus (setting [1]) is 32 U/ml; with Pseudomonas aeruginosa (in µg/mL (unit assumed)), 32; with Escherichia coli (strain 183/58, 24 hours, 37°C) it was < 1 U/ml; against Escherichia coli (strain A 261, 24 hours, 37°C), 512 U/ml; in the assay with Klebsiella-Aerobacter (in µg/mL (unit assumed)), 8; in the assay on Streptococcus faecalis (ATCC 9790, 24 hours, 37°C), 16 U/ml. Besides, the MIC in the assay on Proteus vulgaris (unit assumed) and in the assay on Proteus morganii (unit assumed) was 2 µg/mL throughout.
As for `CC1(C)S[C@@H]2[C@H](NC(=O)C(NC(=O)N3CCN(S(C)(=O)=O)C3=O)c3cccs3)C(=O)N2[C@H]1C(=O)O` (stereo partly drawn) [Penicillin No. 3 (Table 3), Sodium D,L-α-[(3-methylsulphonyl-imidazolidin-2-on-1-yl)-carbonylamino]-α-thienyl-(2)-mthylpenicillin], the MIC was < 1 U/ml in the assay on Staphylococcus aureus (Table 3, strain 133); 128 U/ml against Staphylococcus aureus (Table 3, strain 1756E); 64 U/ml in the assay with Pseudomonas aeruginosa (Table 3, strain F 41); 64 U/ml in the assay on Pseudomonas aeruginosa (Table 3, strain Walter); < 1 U/ml in the assay on Escherichia coli (Table 3, strain 14); 4 U/ml against Escherichia coli (Table 3, strain 183/58). Further, the MIC against Escherichia coli (Table 3, strain A 261) came to 256 U/ml; with Escherichia coli (Table 3, strain C 165), 4 U/ml; with Klebsiella-Aerobacter (Table 3, strain 63) it was 256 U/ml; in the assay with Klebsiella-Aerobacter (Table 3, strain K 10), 16 U/ml; in the assay on Streptococcus faecalis (unit assumed), 32 µg/mL; in the assay with Proteus vulgaris (Table 3, strain 1017), 4 U/ml. This molecule yielded an MIC in the assay on Proteus morganii (Table 3, strain 932) of 16 U/ml.
Take `CC(=O)N1CCN(C(=O)NC(C(=O)N[C@@H]2C(=O)N3[C@@H]2SC(C)(C)[C@@H]3C(=O)O)c2c(Cl)cccc2Cl)C1=O` (stereo partly drawn) [Penicillin No. 10 (Table 3), Sodium D,L-α-[(3-acetyl-imidazolidin-2-on-1-yl)carbonylamino]-2,6-dichloro-benzylpenicillin]: the MIC is 16 U/ml in the assay on Staphylococcus aureus (Table 3, strain 133); 512 U/ml against Staphylococcus aureus (Table 3, strain 1756E); > 512 U/ml against Pseudomonas aeruginosa (Table 3, strain F 41); > 512 U/ml in the assay on Pseudomonas aeruginosa (Table 3, strain Walter); 128 U/ml in the assay with Escherichia coli (Table 3, strain 14); 256 U/ml in the assay with Escherichia coli (Table 3, strain 183/58). Besides, the MIC against Escherichia coli (Table 3, strain A 261) was > 512 U/ml; against Escherichia coli (Table 3, strain C 165), 512 U/ml; in the assay on Klebsiella-Aerobacter (Table 3, strain 63), > 512 U/ml; with Klebsiella-Aerobacter (Table 3, strain K 10) it was > 512 U/ml; against Streptococcus faecalis (Table 3, ATCC 9790), > 512 U/ml; in the assay on Proteus vulgaris (Table 3, strain 1017), 256 U/ml. For the same molecule, the MIC in the assay on Proteus morganii (Table 3, strain 932) is recorded as 256 U/ml.
For `CC1(C)S[C@@H]2[C@H](NC(=O)[C@H](NC(=O)N3CCN(C(=O)Oc4ccccc4)C3=O)c3ccccc3)C(=O)N2[C@H]1C(=O)O` [Example 11, Sodium D(-)-α-[(3-phenoxycarbonyl-imidazolidin-2-on-1-yl)-carbonylamino]-benzylpenicillin], the MIC was 32 and 16 against Pseudomonas aeruginosa (in µg/mL (unit assumed)); 4 in the assay on Klebsiella-Aerobacter (in µg/mL (unit assumed)); 16 µg/mL in the assay on Streptococcus faecalis (unit assumed); 16 µg/mL with Proteus vulgaris (unit assumed); 8 µg/mL against Proteus morganii (unit assumed).
Take `CC1(C)S[C@@H]2[C@H](NC(=O)[C@H](NC(=O)N3CCN=C3NS(C)(=O)=O)c3ccccc3)C(=O)N2[C@H]1C(=O)O` [Example 19, Sodium D(-)-α-[(2-methylsulphonylamino-imidazolin(2)-1-yl)-carbonylamino]-benzylpenicillin]: the MIC against Escherichia coli (strain 183/58, 24 hours, 37°C) amounted to 16 U/ml; in the assay with Proteus vulgaris (strain 1017, 24 hours, 37°C), 16 U/ml; against Proteus vulgaris (unit assumed), 16 µg/mL; in the assay with Proteus morganii (unit assumed), 32 µg/mL.
For `CC1(C)S[C@@H]2[C@H](NC(=O)[C@H](NC(=O)N3CCN(C(=O)c4ccccc4)C3=O)c3ccccc3)C(=O)N2[C@H]1C(=O)O` [Example 12, Sodium D(-)-α-[(3-benzoyl-imidazolidin-2-on-1-yl)-carbonylamino]-benzylpenicillin], the MIC in the assay on Staphylococcus aureus (setting [1]) is 256 U/ml; against Pseudomonas aeruginosa (in µg/mL (unit assumed)), 32; with Escherichia coli (strain 183/58, 24 hours, 37°C), < 1 U/ml; against Escherichia coli (strain A 261, 24 hours, 37°C), 64 U/ml; against Klebsiella-Aerobacter (in µg/mL (unit assumed)) it was 8; in the assay on Streptococcus faecalis (unit assumed) it was 32 µg/mL. Further, in the assay with Proteus morganii (unit assumed), the MIC amounted to 8 µg/mL.
Consider “Sodium D(-)-α-[(3-methylsulphonyl-4- or 5-methyl-imidazolidin-2-on-1-yl)-carbonylamino]-benzylpenicillin [Example 32]”, for which the MIC is 256 and 128 against Pseudomonas aeruginosa (in µg/mL (unit assumed)); 32 and 16 against Klebsiella-Aerobacter (in µg/mL (unit assumed)); 16 µg/mL in the assay with Streptococcus faecalis (unit assumed); 8 µg/mL against Proteus vulgaris (unit assumed); 8 µg/mL in the assay on Proteus morganii (unit assumed).
